Reference: patent US20250339391A1, “METHODS FOR EFFECTIVE MANAGEMENT OF PAIN” (South Rampart Pharma, Inc., priority 2024, published 2025)
“Also recorded” adds a separate entry of the source.

Assays:
[1] = system: conscious telemetered beagle dogs; assay: Cardiovascular effect in conscious telemetered beagle dogs (GLP); assay type: in vivo, dog
Description: The effects of SRP-001 on hERG current amplitude at physiologic temperatures were evaluated over a nominal concentration range of 0.1 μM to 100M. A vehicle group (10% DMSO) was included in the study for comparison, and dofetilide (10 nM) was used as a reference substance. The vehicle and positive controls indicated appropriate sensitivity of the test systems. […] Next, the potential acute effects of oral SRP-001 on cardiovascular function in conscious telemetered beagle dogs was done using a Latin Square design; 4 male naïve beagle dogs each received vehicle (10% DMSO: 10% labrasol: 80% PEG400) and three doses (30, 90, and 150 mg/kg) of SRP-001 nanosuspension by oral gavage. […] A single dose was administered on the day of dosing, and a washout period of seven days was allowed between doses. One-min means of hemodynamic parameters, as well as ECG parameters and body temperature, were measured for a period of at least 24 h. One-min tracings of the ECGs were obtained at 15 min prior to dosing and at 30 min, 1, 2, 4, 8, 12, and 24 h post-dose. Qualitative evaluation of the ECGs was done by a board-certified veterinary cardiologist.

male Sprague-Dawley rats = assay: Neuropharmacological profile (modified Irwin/FOB) in Sprague-Dawley rats (GLP); assay type: in vivo, rat
Description: Any potential neuropharmacological effects of orally administered SRP-001 in rats were assessed in three groups of eight male Sprague-Dawley rats. Each was orally administered SRP-001 at a single dose of 220, 440, or 660 mg/kg. Vehicle (10% labrasol: 10% DMSO: 80% PEG400) was administered to an additional group of eight rats. The dose volume was 10 mL/kg. […] All observations were made at ±5 min for the observations through 1 h post-dose and ±15 min for the later observations. Body temperature was measured 1 h following dose administration.

[2] = Phase 1 multiple ascending dose (MAD) pharmacokinetics; assay type: in vivo, human
Description: A two-part randomized, double-blind, placebo-controlled Phase 1 trial was conducted to assess the safety, tolerability, PK and PD of SRP-001 ascending doses (Quotient Sciences, Miami, FL USA). The study was conducted in accordance with the International Council for Harmonisation of Technical Requirements for Pharmaceuticals for Human Use (ICH), Guideline for GCP: Consolidated Guidance (E6), and applicable regulatory requirements(s) including clinical research guidelines established by the Basic Principles defined in the U.S. 21 CFR Parts 50, 56, and 312 and the principles enunciated in the Declaration of Helsinki (revised version Fortaleza 2013). The clinical protocol and informed consent form were reviewed and approved by an Institutional Review Board (IRB; Advarra IRB, 6100 Merriweather Drive, Suite 600, Columbia, MD 21044; Quotient Protocol No. SRP-101 and Quotient Sciences Study No. QSC205130; Quotient Sciences Miami, 3898 NW 7th Street, Miami, FL 33126.). The study comprises a SAD (Part 1) assessment that includes a food effect assessment that contributes data to inform a subsequent MAD (Part 2) dose-ranging study. Safety measurements were collected throughout the study for all subjects. Blood samples were collected to determine the PK parameters of SRP-001. ClinicalTrials.gov identifier: NCT05484414

male Beagle dogs = conditions: dog, in vivo
Description: 6) A Two-day Oral Dose Toxicity and Pharmacokinetic Study of SRP-001 in Beagle Dogs Non-GLP) SRP-001 was supplied by Olon Ricerca Bioscience as an off-white powder and then prepared as dosing suspensions for oral administration via gavage (Calvert Labs/Altasciences, Scott Township, PA USA). Six experimentally non-naïve male Beagle dogs (3/dose), at least 7 months old and weighing 7.2 to 10.2 kg prior to treatment initiation, were administered 100 or 900 mg/kg/d SRP-001. Animals were dosed three times daily (3-5 h between doses) for 2 d. Mortality/morbidity was performed twice daily. On the day of dosing, animals were observed prior to each dose administration and approximately 1-3 h after each dose. Animals were also observed once on day 3. Body weights were recorded for all animals prior to the first dose administration on days 1 and 3, and food consumption was recorded daily. Blood for bioanalytical evaluation was collected at selected timepoints on day 1. Following the completion of the study, surviving animals were not euthanized and were returned to the Calvert colony.

Beagle dogs = assay: 7-day repeat-dose oral toxicity study in Beagle dogs, Phase II (non-GLP); assay type: in vivo, dog
Description: 7) A Dose-Range-Finding and 7-day Repeat-Dose Oral Toxicity Study of SRP-001 in Beagle dogs (Non-GLP) In Phase II of this study, 0, 30, 100, or 300 mg/kg/d of SRP-001 was administered once daily for seven consecutive days to 1 Beagle dog/sex/dose (Calvert Labs/Altasciences, Scott Township, PA USA). Mortality/morbidity was observed twice daily and once prior to scheduled sacrifice. Clinical observations were evaluated prior to each dose administration and at approximately 1-3 h post-dose and once prior to scheduled sacrifice on day 8. Body weights were recorded on days 1 and 7, and a fasted body weight was recorded prior to scheduled sacrifice on day 8. Food consumption was recorded daily. Blood for evaluation of hematology, coagulation, and clinical chemistry parameters and urine for urinalysis was collected from all animals prior to treatment initiation and from all Phase II animals prior to scheduled sacrifice on day 8. Blood for toxicokinetic evaluation was collected at selected time points on days 1 and 7. Selected tissues were harvested and weighed at necropsy. No microscopic evaluations were performed. […] The clinical observations corroborated with findings of red discoloration in the duodenum of the control group female, the jejunum of the low-dose male, and the colon of both high-dose dogs.

Structure (SMILES): CCN(CC)C(=O)c1ccccc1S(=O)(=O)NCC(=O)Nc1ccc(O)cc1 [SRP-001, N,N-diethyl-2-[[2-(4-hydroxyanilino)-2-oxo-ethyl]sulfamoyl]benzamide]
- effects on blood pressure, heart rate, ECG morphology, ECG measurements, body temperature ([1]; 30, 90 and 150 mg/kg oral): no effects on pulmonary function or cardio-telemetry; also recorded: did not induce any biologically relevant effects
- QTc ([1]; telemetered safety pharmacology study in dogs): no prolonged QTc
- body temperature versus vehicle (male Sprague-Dawley rats; 660 mg/kg, 1 h post-dose): significantly (p≤0.05) lower; also recorded: lower body temperature
- neuropharmacological or clinical signs (male Sprague-Dawley rats; 220, 440 or 660 mg/kg oral, through 24 h post-dose): No apparent neuropharmacological or clinical signs were observed
- T1/2, geometric mean ([2]; MAD 500 mg, Day 1): 3.06 h
- T1/2, geometric mean ([2]; MAD 1,000 mg, Day 1): 4.05 h
- T1/2, geometric mean ([2]; MAD 1,000 mg, Day 5): 9.77 h
- T1/2, arithmetic mean ([2]; MAD cohorts): 5.57 h
- PK parameters on Day 5 versus Day 1 ([2]; Phase 1 MAD cohort): demonstrated a decrease
- half-life ([2]; human, blood, summary aspect, read-out: half-life in said subject): 4.9 to 9.8 h
- emesis (male Beagle dogs): Nearly all animals had emesis
- amplification in peak plasma concentration (male Beagle dogs; male, Beagle): 3-4 fold
- tolerated dose (male Beagle dogs; male, Beagle, 2 d): 900 mg/kg/day
- clinical signs (Beagle dogs; 30, 100, 300 mg/kg/d): loose or soft feces and emesis
- tolerated dose (Beagle dogs; both, Beagle, dog, in vivo, 7 d): 300 mg/kg
- AUC and Cmax levels (Beagle dogs; dog, in vivo): increased in a dose-dependent manner, with day 1 levels higher than those from day 7
